Entries after “also recorded” stand apart in the source; their conditions may differ.
Columns and labels:
HD-MB03 cells = test: Cell cycle analysis in HD-MB03 cells; assay type: cell-based, human; details: 5 μM, 48 hours; control 44.7%
Text: (§1) FIGS. 3A-3F show the effect of MDP5 treatment on cell cycle analysis, induction of apoptosis, and colony formation assay in MB cells. […] Histograms show the quantitative analysis of cell cycle assay for DAOY (FIG. 3A) and HD-MB03 (FIG. 3B) cells (n=5; mean±S.D., p<0.05). […] FIG. 3C provides images of cells treated with the indicated compounds. […] FIGS. 3D and 3E provide graphs of the apoptotic assay showing higher numbers of apoptotic cells in MDP5 treated groups (n=5; mean±S.D.; p<0.05). FIG. 3F provides a graph of the relative expression of BCL2 and MYCN target genes after treatment, as determined by RT-PCR.
(§2) Cell cycle distribution was determined in proliferating MB cells. […] Cells were harvested with 0.25% EDTA-free trypsin (Gibco) and washed twice in ice-cold PBS. Control and treated cells (0.1×10^6) were stained with FxCycle™ PI/RNase Staining Solution (ThermoFisher Scientific) and analyzed for DNA content via flow cytometry.

DAOY and HDMB-03 cells = test: Transwell migration assay; assay type: cell-based, human; details: vs control
Protocol: FIGS. 2A-2D show the effect of MDP5 treatment on cell viability and migration potential in MB cells. FIGS. 2A and 2B provide graphs of cell viability assays with DAOY cells (FIG. 2A) and HD-MB03 cells (FIG. 2B) with the indicated compounds. FIG. 2C provides images of the Transwell® migration assay and FIG. 2D provides quantitation of the Transwell® migration assay (top: DAOY cells; bottom: HD-MB03 cells). Cells were fixed in formalin and stained with 0.5% crystal violet for 30 minutes. Images were taken using a microscope at 20× objective. Stained cells were then dissolved in acetic acid solution and optical density (OD) was measured at 590 nm. Scale bar: 100 μm. **P<0.01 and ***P<0.001 vs Control.
Further, the effect of MDPS on cell migration was investigated.

HD-MB03 and DAOY cells = test: Western blot of target proteins; assay type: cell-based, human; details: for GLI1 and GLI2 protein expression: HD-MB03 and DAOY cells
Protocol: FIGS. 4A and 4B provide images of western blot analyses of target proteins after HDMB03 and DAOY cells were incubated with 5.0 μM of the indicated compounds for 48 hours. FIG. 4C (HD-MB03) and 4D (DAOY) provide western blot images which show the effects of MDP5 treatment on target proteins including GLI1 and GLI2. FIG. 4E provides representative confocal images of DAOY and HD-MB03 spheroids after treatment with 5.0 μM MDP5. […] Spheroids were stained for live (calcein AM) and dead (ethidium homodimer-1) cells after 7 days of treatment. Scale bars=200 μm. […] Next, cells were incubated with APC-CD15 for 30 minutes on ice in the dark. Before FACS analysis, samples were washed thrice with a staining buffer. FIG. 4G provides a graph showing the quantitation of CD15+ cells (n=3; p<0.05, control vs. treatment groups).
The whole protein from each treated group was extracted using RIPA buffer containing a cocktail of protease inhibitors (Sigma-Aldrich) for protein level determination. Protein concentration was determined using a BCA assay (Peirce). Next, 40 μg protein was subject to SDS-PAGE in a 10% gel. Following the transfer of targeted proteins onto polyvinylidene difluoride sheets, the membranes were washed with Tris-buffered saline plus Tween® 20 (TTBS; cat. no. WLA025; Wanleibio Co., Ltd.) for 5 minutes and then blocked with skimmed milk powder solution for 1 hour. Primary antibodies against Gli1 (1:1000), Gli2 (1:1000), MYCN (1:1,000), p-MYCN (1:1,000), Bcl-2 (1:1000), Bax (1:1000), p-PI3K (1:500), PI3K (1:1000), p-Akt (1:500), Akt (1:1000), Cyclin D1 (1:1000), and β-actin (1:1,000) were added and the membranes were incubated at 4° C. overnight. After an additional four washes with TBST, secondary IgG antibodies conjugated to horseradish peroxidase (1:5,000) were incubated with the membranes for 45 minutes at 37° C. Following a further six washes with TBST, the blots were developed using ECL start Western blotting detection kit (GE Healthcare) and the results were recorded in the iBright™ FL100 (Invitrogen). The relative expression levels of these proteins in different groups were calculated with the iBright™ software.

DAOY cells = test: Cell cycle analysis in DAOY cells; assay type: cell-based, human; details: 5 μM, 48 hours; control 52.8%
Text: as §1, §2

[1] = tested on: DAOY and HD-MB03 spheroids; test: Tumor spheroid live/dead assay; assay type: cell-based, human; details: 5.0 μM, 7 days
Protocol: Tumor spheroids were formed using MB cells following the method described (Bhattarai, et al. (2021) J. Control. Release 329:585-597). For tumor spheroids assay, 1500 and 500 DAOY and HD-MB03 cells, respectively, were suspended in 100 μL media and seeded in ultra-low attachment (ULA) 96-well plate for a week and 50 μL of media was replaced by fresh media every third day and spheroid size was tracked under fluorescent microscope. […] After 7 days of the treatment period, spheroids were stained with Calcein AM (2 μM) and ethidium homodimer-1 (3 μM) (LIVE/DEAD™; L3224) to check the live/dead cells. Images were taken by confocal laser microscope (Zesis LSM 710) with 10× magnification at 40 μm depth.

[2] = tested on: DAOY cell generated orthotopic MB; test: Intracranial orthotopic MB xenograft model; assay type: in vivo, NSG mice; details: for tumor at cerebellum region by H&E and Ki-67 IHC: vehicle-treated vs treated mice
Protocol: For the orthotopic MB model, stable luciferase-expressing DAOY cells (0.1×10^6) were used to generate the orthotopic MB tumor in NSG mice (Kumar, et al. (2021) Biomaterials 278:121138). Bioluminescence imaging using IVIS (Spectrum) was done to monitor the tumor growth weekly after implantation surgery.
A total of seven injections were given, and the mouse body weights were measured before every injection. The tumor growth was monitored by calipers in the case of the xenograft model and by IVIS imaging for the orthotopic model. For histological examination, the major organs of representative mice from each animal group were dissected and stained with H&E. Tissues after being fixed with 10% paraformaldehyde solution for 24 hours were embedded in 5 μm thick sections of paraffin, and were stained for different proteins. Stained slides were imaged at 40× magnification using an iScan HT Slide Scanner (Ventana Medical Systems, Inc, AZ).
Next, it was tested whether MDP5 treatment suppresses MB growth in an intracranial orthotopic xenograft model. DAOY cells stably expressing green fluorescent protein (GFP)/luciferase were injected into the cerebella of NSG mice. After twenty-one days of implantation, the tumor signal was measured with IVIS, and animals were divided into the vehicle (propylene glycol) or MDP5 treated groups. A drug solution was injected every three days for 28 days, and bioluminescence imaging was performed once a week.

Row | Structure (SMILES) | cells in the G1 phase, HD-MB03 (HD-MB03 cells) | cells migrated in Transwell migration assay (DAOY and HDMB-03 cells) | Cyclin D1, p-AKT (Ser473) and p-PI3K protein levels (HD-MB03 and DAOY cells; 5.0 μM, 48 hours) | p-MYCN (Ser54) level (HD-MB03 and DAOY cells; 5.0 μM, 48 hours) | GLI1 and GLI2 protein expression (HD-MB03 and DAOY cells) | GLI1 protein expression in HD-MB03 cells (HD-MB03 and DAOY cells; among treated HD-MB03 cells) | cells in the G1 phase, DAOY (DAOY cells) | cell viability of tumor spheroids [1] | size / formation of tumor spheroids ([1]; vs DMSO-treated control) | survival ([2]; control animals all dead by day 35) | orthotopic tumor growth (IVIS imaging) ([2]; injection every three days for 28 days) | tumor at cerebellum region by H&E and Ki-67 IHC [2] | bioluminescence (BLI) signal ([2]; vs rapid increase in control animals) | GLI2 protein accumulation (HD-MB03 and DAOY cells; compared with other treatments)
1 | O=c1cc(N2CCOCC2)oc2c(-c3ccc4c(c3)OCCO4)cccc12 [MDP5, 8-(2,3-dihydrobenzo [b][1,4]dioxin-6-yl)-2-morpholino-4H-chromen-4-one] | 52.2% | decrease migration significantly | reduced | explicitly induced | decrease in levels of both proteins | largest reduction in GLI1 protein expression | 73.2% | significantly decreased | decreased the tumor spheroid formation in both MB cells | four animals out of five survived up to 49 days; also recorded: prolonged the survival | significant effect on the suppression of tumor growth; also recorded: significantly suppressed tumor growth in vivo | much larger tumor at the cerebellum region of the vehicle-treated mouse | low BLI signal | –
2 | O=c1cc(N2CCOCC2)oc2c(-c3ccc4c(c3)OCCO4)csc12 [SF2523, reference compound] | 58.9% | decreased the amount of DAOY and HDMB-03 cells migrated | – | – | – | – | 73.1% | significantly decreased | – | – | – | much larger tumor at the cerebellum region of the vehicle-treated mouse | – | exceeded all other treatment options in terms of lowering GLI2 protein accumulation
3 | O=C(/C=C/N1CCOCC1)c1cccc(-c2cc3c(cc2Br)OCCO3)c1O [MDP1, (E)-1-(3-(7-bromo-2,3-dihydrobenzo [b][1,4]dioxin-6-yl)-2-hydroxyphenyl)-3-morpholinoprop-2-en-1-one] | 26.2% | decreased the amount of DAOY and HDMB-03 cells migrated | – | – | decrease in levels of both proteins | – | 40.1% | – | – | – | – | – | – | –

Reference: patent US20260069599A1, “INHIBITORS OF BROMODOMAIN-CONTAINING PROTEIN 4 AND PHOSPHOINOSITIDE 3-KINASE” (Board of Regents of the University of Nebraska, priority 2022, published 2026)
